Measured values from patent US6610502B1, “Compound 2-amino-3-[2-(α-mannopyranosyl)indol-3-yl]propionic acid, process for preparing the same, and method for inspecting function of living body with the novel compound” (Kyowa Medex Co., Ltd., priority 1997, dated 2003).
“And” between values parts separate entries of the source, which are not always exact repeats. Identical values can stand only once.

Key:
[1] = system: monoclonal antibody specifically reactive with 2-amino-3-[2-(α-mannopyranosyl)indole-3-yl]propionic acid; experiment: Confirming the specificity of the monoclonal antibody (competitive enzyme immunoassay, absorbance at 660 nm); format: binding, mouse; details: test samples at concentrations not more than 100 μg/ml; plate coated with BSA conjugate
Method: First, 50 μl of 2-amino-3-[2-(α-D-mannopyranosyl)indole-3-yl]propionic acid-BSA conjugate solution (20 μg/ml, 0.1M carbonate buffer, pH9.5) was dispensed into a 96-well microtiter plate (available from NUNC) and left to stand at 4° C. overnight. After washing the plate with PBS (×3), 250 μl of 1% BSA/PBS solution was dispensed into the plate and left to stand at room temperature for 1 hour. Then, the plate was washed with PBS (×3) to be used as a reaction plate. Next, 50 μl of 0.1M phosphate buffer (pH 7.4) containing varied concentrations of test sample/0.1% BSA was dispensed into the reaction plate into which 50 μl of the monoclonal antibody prepared in e. Purifying the antibodies above (0.1M phosphate buffer containing l10 ng/ml 0.1% BSA, pH7.4) was added while stirring. The mixture was allowed to react at room temperature for 3 hours. After the reaction was completed, the plate was washed with PBS containing 0.05% Tween 20 (5×), and then 50 μl of POD labeled-anti-mouse immunoglobulins-rabbit IgG (DAKO) was added to the plate for reaction at room temperature for 1 hour. […] Finally, 50 μl of reaction stopper (ethyldiethyldithiocarbamate) was added to the plate of which absorbance was then determined at 660 nm by a microplate reader.

[2] = GFR assay, comparative example: creatinine in the same samples by enzymatic assay kit, clearance (Example 8); format: in vivo, human
[3] = Assay of excreted amount in urine, comparative example: creatinine by enzymatic assay kit (Example 9); format: in vivo, human; details: healthy persons

Structure (SMILES)	decrease in the absorbance (reaction with the antibody) [1]	creatinine in serum ([2]; Average of 18 subjects)	creatinine in urine ([2]; Average of 18 subjects)	creatinine in serum ([2]; individual subjects 1-18, patients with non-renal disease)	creatinine in urine ([2]; individual subjects 1-18, urine stored for 24 hours)	excreted amount in urine, average ([3]; female, age 0-10)	excreted amount in urine, average ([3]; female, age 0-90)	excreted amount in urine, average ([3]; female, age 10-30)	excreted amount in urine, average ([3]; female, age 30-50)	excreted amount in urine, average ([3]; female, age 50-70)	excreted amount in urine, average ([3]; female, age 70-90)	excreted amount in urine, average ([3]; male, age 0-10)	excreted amount in urine, average ([3]; male, age 0-90)	excreted amount in urine, average ([3]; male, age 10-30)	excreted amount in urine, average ([3]; male, age 50-70)	excreted amount in urine, average ([3]; male, age 70-90)
O=C[C@@H](O)[C@@H](O)[C@H](O)[C@H](O)CO (racemic) [DL-mannose]	no decrease															
N[C@@H](Cc1c[nH]c2ccccc12)C(=O)O [L-tryptophan]	no decrease															
CN1CC(=O)NC1=N [creatinine]		0.65 mg/dL	72.12 mg/dL	0.61 mg/dl and 0.80 mg/dl (3×) and 0.50 mg/dl and 0.40 mg/dl (3×) and 0.70 mg/dl (4×) and 0.56 mg/dl and 0.72 mg/dl and 0.63 mg/dl and 0.64 mg/dl and 0.71 mg/dl and 0.84 mg/dl	50.1 mg/dL and 48.9 mg/dL and 21.2 mg/dL and 51.9 mg/dL and 30.5 mg/dL and 70.2 mg/dL and 32.0 mg/dL and 74.1 mg/dL and 48.2 mg/dL and 138.8 mg/dL and 46.5 mg/dL and 100.2 mg/dL and 63.5 mg/dL and 142.0 mg/dL and 88.0 mg/dL and 69.9 mg/dL and 183.1 mg/dL and 39.0 mg/dL	245 mg/day	559 mg/day	609 mg/day	742 mg/day	684 mg/day	515 mg/day	387 mg/day	833 mg/day	1066 mg/day	893 mg/day	599 mg/day
